Assay [1] is described as follows: ORAC antioxidant assay. Conditions: read-out: ORAC antioxidant EC50; positive control. The format is physicochemical.
The target in assay [2] is T1, recombinant human MAO-B (Homo sapiens, UniProt P27338).
T1 sequence (P27338 1-520): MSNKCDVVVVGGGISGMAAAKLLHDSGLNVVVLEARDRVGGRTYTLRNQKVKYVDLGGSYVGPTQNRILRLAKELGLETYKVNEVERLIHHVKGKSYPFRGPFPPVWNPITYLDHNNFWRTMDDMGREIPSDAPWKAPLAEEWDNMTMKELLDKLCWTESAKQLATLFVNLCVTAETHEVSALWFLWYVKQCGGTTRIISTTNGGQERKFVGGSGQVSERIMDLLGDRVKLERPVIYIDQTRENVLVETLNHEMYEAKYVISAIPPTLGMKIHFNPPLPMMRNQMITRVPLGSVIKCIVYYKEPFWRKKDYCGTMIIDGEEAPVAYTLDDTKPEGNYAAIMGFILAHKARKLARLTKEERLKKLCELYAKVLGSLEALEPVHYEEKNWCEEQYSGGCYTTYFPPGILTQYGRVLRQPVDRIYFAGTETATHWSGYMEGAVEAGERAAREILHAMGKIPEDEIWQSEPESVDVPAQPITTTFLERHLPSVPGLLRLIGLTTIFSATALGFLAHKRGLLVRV
The assay is described as follows: MAO-B enzyme inhibition assay. The format is biochemical.

The structures appear in SMILES notation.

A word on the EC50: it is the concentration needed to bring the measured effect to its halfway point. For `O=C1O[C@H]([C@@H](O)CO)C(O)=C1O` [Vitamin C], the concentration giving a half-maximal response (EC50) in assay [1] turned out to be 25.9 µM.

What is called IC50 is the point on the concentration scale where inhibition reaches its midpoint. For the compound `NS(=O)(=O)Cc1noc2ccccc12` [Zonisamide], the half-inhibitory concentration (IC50) in assay [2] is 22.6 µM.
